Measured values from patent US6103875A, “Antifungal compounds from pseudomonas viridiflava” (Pharmagenesis, Inc., priority 1997, dated 2000).
Values after ≈ are worked out from the molar mass of the structure shown.

Assays:
[1] = tested on: Cryptococcus neoformans 90012; experiment: Minimal inhibitory concentration test (modified NCCLS protocol); format: cell-based, Cryptococcus neoformans (ATCC 90012)
Protocol: (§1) All fungi used for test purposes for sensitivity to the ecomycins were obtained from the ATCC or from the mycological collection at Montana State University, Bozeman, Mont.
(§2) Samples of the semi-purified ecomycin preparation, purified Ecomycin A, and Ecomycin B were tested, along with a known antifungal compound, Amphotericin B, in a minimal inhibitory concentration test (MIC) modification of the NCCLS protocol (Galgiani, et al., 1995).

Candida albicans = experiment: Synergy with amphotericin B, inhibition of growth in 96-well plates; format: cell-based
Protocol: Briefly, in turning now to the illustrative experiments described in Example 11, varying amounts of amphotericin B were added to varying concentrations of an exemplary composition containing the antifungal lipopeptides of the present invention, extract EB-273, followed by a determination of the resulting inhibition of growth of Candida albicans.
Experiments were conducted with the semi-purified preparation of ecomycins (extract EB-273), added individually or in combination with sub-fungicidaldoses of Amphotericin B, to 96-well plates inoculated with C. albicans.

Candida kefir 46764 = experiment: Minimal inhibitory concentration test (modified NCCLS protocol); format: cell-based, Candida kefir (ATCC 46764)
Protocol: as §1, §2

[2] = tested on: Cryptococcus neoformans 90013; experiment: as above; format: cell-based, Cryptococcus neoformans (ATCC 90013)
Protocol: as §1, §2

[3] = cited from earlier work
Candida albicans 90029 = experiment: Minimal inhibitory concentration test (modified NCCLS protocol); format: cell-based, Candida albicans (ATCC 90029)
Protocol: as §1, §2

[4] = Thomas, 1986; cited from earlier work
Candida glabrata 90030 = experiment: Minimal inhibitory concentration test (modified NCCLS protocol); format: cell-based, Candida glabrata (ATCC 90030); conditions: Nakaseomyces glabratus
Protocol: as §1, §2

Candida albicans 90028 = experiment: as above; format: cell-based, Candida albicans (ATCC 90028)
Protocol: as §1, §2

[5] = tested on: Candida parasilopsis 90018; experiment: as above; format: cell-based, Candida parasilopsis (ATCC 90018)
Protocol: as §1, §2

Q: Which MIC [1] does the source give for `C[C@@H]1[C@H](O)[C@@H](C)/C=C/C=C/C=C/C=C/C=C/C=C/C=C/[C@H](O[C@@H]2O[C@H](C)[C@@H](O)[C@H](N)[C@@H]2O)C[C@@H]2O[C@](O)(C[C@@H](O)C[C@@H](O)[C@H](O)CC[C@@H](O)C[C@@H](O)CC(=O)O[C@H]1C)C[C@H](O)[C@H]2C(=O)O` [Amphotericin B] here?
A: 0.1 µg/mL (≈ 0.108 µM)

Q: What about the inhibition at 0.035 µg/mL (Candida albicans; Candida albicans, read-out: inhibitory effect) of the same compound?
A: ~30%

Q: And the inhibition at 0.07 µg/mL (Candida albicans; Candida albicans, amphotericin B alone, 70 ng/ml, read-out: inhibitory effect)?
A: ~25%

Q: And the inhibition at 0.105 µg/mL (Candida albicans; Candida albicans, amphotericin B alone, 105 ng/ml, read-out: inhibitory effect)?
A: ~43%

Q: What about the inhibition at 0.14 µg/mL (Candida albicans; Candida albicans, amphotericin B alone, 140 ng/ml, read-out: inhibitory effect) of the same compound?
A: ~55%

Q: And the inhibition at 0.175 µg/mL (Candida albicans; Candida albicans, amphotericin B alone, 175 ng/ml, read-out: inhibitory effect)?
A: ~84%

Q: And the “enhancement of inhibitory effect” value (Candida albicans; amphotericin B 70 ng/ml + extract EB-273 about 8-12 μg/ml or greater vs. amphotericin B alone)?
A: nearly four-fold

Q: And the inhibitory effect (Candida albicans; amphotericin B 70 ng/ml + extract EB-273 at about 8-12 μg/ml or greater)?
A: ~100%

Q: What about the enhancement of activity (Candida albicans; amphotericin B 105 ng/ml + extract EB-273 vs. amphotericin B alone) of the same compound?
A: approximate two-fold enhancement

Q: And the enhancement of activity (Candida albicans; amphotericin B 140 ng/ml + extract EB-273 vs. amphotericin B alone)?
A: approximate two-fold enhancement

Q: What about the “interaction between amphotericin B and ecomycin extract (isobolographic analyses)” value (Candida albicans; amphotericin B + ecomycin extract EB-273, range of dosage responses) of the same compound?
A: synergistic rather than additive

Q: What about the “inhibition of C. albicans” value (Candida albicans; amphotericin B alone, 210 ng/ml) of the same compound?
A: nearly complete inhibition

Q: What about the “reduction of amount of amphotericin B required to effectively suppress growth of Candida” value (Candida albicans; in combination with the lipopeptides composition) of the same compound?
A: at least 30%

Q: And the “reduction of amphotericin B concentration required for substantially complete inhibition” value (Candida albicans; with EB-273, [210 ng/ml-175 ng/ml]/210×100)?
A: 16%

Q: And the “reduction of amphotericin B concentration required for substantially complete inhibition” value (Candida albicans; with a suitable concentration of EB-273, fourth of four)?
A: 66%

Q: What about the “reduction of amphotericin B concentration required for substantially complete inhibition” value (Candida albicans; with a suitable concentration of EB-273, second of four) of the same compound?
A: 33%

Q: And the “reduction of amphotericin B concentration required for substantially complete inhibition” value (Candida albicans; with a suitable concentration of EB-273, third of four)?
A: 50%

Q: And the MIC (Candida kefir 46764)?
A: 0.1 µg/mL (≈ 0.108 µM)

Q: And the MIC [2]?
A: 0.3 µg/mL (≈ 0.325 µM)

Q: And the oral absorption [3]?
A: not adsorbed orally

Q: And the MIC (Candida albicans 90029)?
A: 0.6 µg/mL (≈ 0.649 µM)

Q: What about the “toxicity, undesirable side-effects” value [4] of the same compound?
A: leucopenia, thrombocytopenia, renal tubular acidosis, hypokalemia, hypomagnesemia, headaches, nausea, and anemia

Q: And the MIC (Candida glabrata 90030)?
A: 0.6 µg/mL (≈ 0.649 µM)

Q: What about the MIC (Candida albicans 90028) of the same compound?
A: 0.6 µg/mL (≈ 0.649 µM)

Q: What about the MIC [5] of the same compound?
A: 0.1 µg/mL (≈ 0.108 µM)
